These are literature values, as cited in patent US7332498B2, “Modulation of KSP kinesin activity with heterocyclic-fused pyrimidinone derivatives” (Cytokinetics, Inc., priority 2002, dated 2008).

In general, GI50 refers to the concentration at which growth is held to half of that of the control.

The subject of the data set is A549 cells. The settings on record: data provided by National Cancer Institute, Developmental Therapeutic Program.
For the molecule `O=c1[nH]cc(F)c(=O)[nH]1` [5-fluorouracil], the GI50 was 1000 nM.
Consider `COc1cccc2c1C(=O)c1c(O)c3c(c(O)c1C2=O)C[C@@](O)(C(=O)CO)C[C@@H]3O[C@H]1C[C@H](N)[C@H](O)[C@H](C)O1` [doxorubicin], for which the GI50 was 63 nM.
With `NC(=O)NO` [hydroxyurea], the GI50 was 500000 nM.
For `CC(=O)O[C@H]1C(=O)[C@@]2(C)[C@H]([C@H](OC(=O)c3ccccc3)[C@]3(O)C[C@H](OC(=O)[C@H](O)[C@@H](NC(=O)c4ccccc4)c4ccccc4)C(C)=C1C3(C)C)[C@]1(OC(C)=O)CO[C@@H]1C[C@@H]2O` [paclitaxel], the GI50 was 4 nM.
